Holding throughout (format): cell-based
For one assay, the system named is NCI-H520 cell line. The assay can be described thus: MTT cell proliferation assay, NCI-H520. To be noted: Homo sapiens, 48 hours, read-out: half maximal inhibitory concentration (IC50). The method, then: (§1) NSCLC cell lines A549, NCI-H460, NCI-H520 and normal lung cell line MRC5 were obtained from Bioresource Collection and Research Center (BCRC, Taiwan). A549 cell line was cultured with F12K medium (21127, GIBCO, Carlsbad, U.S.A.). Both NCI-H460 and NCI-H520 cell lines were cultured with RPMI1640 medium (23400, GIBCO, Carlsbad, U.S.A.). MRC5 cell line was culture with MEM medium (41500, GIBCO, Carlsbad, U.S.A.). All media mentioned above contained 10% FBS (10437, GIBCO, Carlsbad, U.S.A.). All cultures were maintained in an incubator (Thermo forma 370, Waltham, U.S.A.) with 5% CO2 at 37° C. Cells were seeded at 1×10^4 cells per well in a 24-well plate for 16 hours. After that, a sample such as the berberine solutions with different concentrations and the extract of C. chinensis was added into 24-well plate directly, and cultured at 37° C. for 24, 48, and 72 hours, respectively. Thiazolyl blue tetrazolium bromide (MTT, m5655, Sigma, St. Louis, U.S.A.) solution was prepared in a concentration of 5.5 mg/ml with phosphate buffered saline (PBS) filtered by 0.22 μm membrane. The MTT solution (50 μl) was added to the wells of 24-well plates with A549, NCI-H460, NCI-H520, and MRC5 cell lines cultured after 24, 48, and 72 hours. The plates were incubated at 37° C. for 2 hours and then moved out. The media of the wells were removed. […]
On the technique in general: Tetrazolium assays rely on reduction of a dye to a coloured formazan, in cell work by metabolically active cells.

In another assay the test system is A549 cell line. Put plainly: MTT cell proliferation assay, A549. The conditions noted are these: Homo sapiens, 48 hours, read-out: half maximal inhibitory concentration (IC50). On the procedure: as §1
A further assay has as its system NCI-H460 cell line. Put plainly: MTT cell proliferation assay, NCI-H460. The conditions noted are these: Homo sapiens, 48 hours, read-out: half maximal inhibitory concentration (IC50). The method, then: as §1
The subject of a further assay is A549 cells. The assay can be described thus: Side population analysis (Hoechst33342, flow cytometry). The conditions noted are these: A549, dose of IC50, 48 hours. On the procedure: A549 cells were seeded in the number of about 3×10^5 in 10 cm dish to give adequate number of cells for analysis. The cells were treated with the extract of C. chinensis and the berberine solution in the dose of IC50 for 48 hours. Then, the treated cells were harvested by typsinization and centrifugation. The harvested cells were re-suspended in the number of 1×10^6 cells/ml in culture medium containing 2% FBS. Hoechst33342 dye (5 μg/ml, Invitrogen, Carlsbad, U.S.A.) was added with or without reserpine (50 μM, Sigma, St. Louis, U.S.A.) as a blocking reagent. The cells were further incubated at 37° C. for 2 hours under frequently gentle vortex to ensure uniform staining, and then washed cells with PBS. PI staining (20 ng/ml) was used to determine the live/dead cells. In order to set up the fluorescence compensation, single staining and non-staining groups were prepared. The cell samples were filtered with nylon mesh (35 μm) to prevent cell aggregation. PI-positive dead cells were primary excluded to avoid false positive signals. Then, the Hoechst blue and red dot plotting was used to determine the side population. A gate of a side population was defined by the diminishing region of two samples groups, i.e. with or without reserpine. The percentages of the side population were further analyzed by Flowjo software (TreeStar, Ashland, U.S.A.).
Background: A flow cytometer gives signals particle by particle.

Turning to `COc1ccc2cc3[n+](cc2c1OC)CCc1cc2c(cc1-3)OCO2` [berberine solution, berberine chloride], the IC50 is ~20 µM with NCI-H520 cell line, ~7 µM in the assay on A549 cell line and ~40 µM in the assay on NCI-H460 cell line. In addition, the “side population (SP)” value in the assay on A549 cells is reported as “considerably diminished”.

For the origin of these results see patent publication US20150320738A1, “BERBERINE-CONTAINING PHARMACEUTICAL COMPOSITION FOR INHIBITING CANCER STEM CELL GROWTH OR CARCINOMA METASTASIS AND APPLICATION THEREOF” (National Taiwan Normal University, priority 2011, published 2015).
